Values joined by “and” are separate entries in the source; they are usually repeats but may differ in a detail not shown here. Equal values may be shown once. Read-outs that look alike come from different tables or passages of the source.
Experiments:
Assay type in all cases: cell-based, Acinetobacter baumannii
AB 5075 = assay: Backlight assay for membrane permeability; conditions: AB5075
Description: The assay was initially performed at 10, 20 and 30 μM with compounds 1 and 4 (Table 16). […] When the concentration is lowered to 20 μM, the percent of membrane disrupted also decreases to 78% and 83% respectively. When further decreasing the concentration to 10 μM, the membrane disruption decreases to 39 and 44% respectively. Due to the similar structure and lack of potentiation activity, compound 25 was screened at 10, 20 and 30 μM to compare membrane permeability with that of active compounds. The percent disruption was less than seen with compounds 1 and 4 being 53, 54 and 60% respectively.

[1] = system: A. baumannii strain 5075 (AB5075); assay: Macrolide sensitization / antibiotic resensitization: antibiotic MIC in presence of compound (broth microdilution); conditions: for MIC: Acinetobacter baumannii; for potentiation of vancomycin: compound at 10 μM; for reduction in vancomycin MIC (fold): compound at 20 μM; for Josamycin MIC / Oleandomycin MIC / Spiramycin MIC / Troleandomycin MIC: in presence of compound (concentration not given in Table 7); for Amikacin MIC / Gentamicin MIC / Kanamycin MIC / Neomycin MIC / Streptomycin MIC / Tobramycin MIC: in presence of compound (concentration not given in Table 12); for Fold reduction of josamycin MIC: in the presence of compound (concentration not given)
Outline: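 A. baumannii AB5075 at 5×10^5 CFU/mL in CAMHB held a fixed compound level while antibiotic was serially diluted. After 16-18 h static at 37° C, MIC was the lowest antibiotic concentration without visible growth. Fold-reduction is relative to antibiotic alone, from duplicates repeated at least twice.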

A. baumannii strain 4456 = assay: Potentiation of clarithromycin and vancomycin against clinical isolate; conditions: with compound at 30 μM
Description: (§1) As previously stated, A. baumannii 5075 was chosen for these studies due to its virulence and multidrug resistance, but to further analyze the activity of our lead compounds, 23 A. baumannii clinical isolates obtained from Walter Reed Army Institute of Research (WRAIR) were tested.
(§2) Day Cultures (6 h) were subcultured to 5×10^5 CFU/mL in cation adjusted Mueller-Hinton broth (CAMHB). […] One milliliter of the resulting solution was aliquoted into a separate culture tube and was dosed with antibiotic so that the resulting concentration was the highest desirable concentration to be tested. Bacteria treated with antibiotic alone were used as a control. Row one of a 96-well plate was filled with 200 μL of the antibiotic/compound solution, and the remaining rows were filled with 100 μL of the remaining 4 mL bacterial subculture. The wells in row one were mixed five times before 100 μL was transferred to the following row (row two). Row two was then mixed five times, and 100 μL was transferred to row three. This process was repeated until the second to last row had been reached. The last row is left unexposed to antibiotic in order to serve as a negative control. The antibiotic only treated bacteria was plated by aliquoting 200 μL of the treated bacteria into row one and filling the remaining rows with untreated bacteria from the original bacteria subculture. The rows were mixed in the same way as described above. Plates were covered with Glad Press n'Seal and were incubated under stationary conditions at 37° C. for 16 hours. MIC values were recorded as the lowest concentration at which no bacterial growth was observed. Fold reductions were determined by comparison of the compound treated wells with the antibiotic only treated control wells.

A. baumannii strain 4490 = assay: as above; conditions: with compound at 30 μM
Description: as §1, §2

A. baumannii strain 5711 = assay: as above; conditions: with compound at 30 μM
Description: as §1, §2

A. baumannii strain 8967 = assay: as above; conditions: with compound at 30 μM
Description: as §1, §2

A. baumannii strain 4957 = assay: as above; conditions: with compound at 30 μM
Description: as §1, §2

A. baumannii strain 4269 = assay: as above; conditions: with compound at 30 μM
Description: as §1, §2

[2] = compound at 10 μM vs colistin alone, AB5075
[3] = compound at 30 μM vs antibiotic alone, AB5075
[4] = in presence of compound at 4 μM, AB5075
[5] = in presence of compound at 5 μM, AB5075
[6] = in presence of compound at 10 μM, AB5075
[7] = in presence of compound at 15 μM, AB5075
[8] = in presence of compound at 20 μM, AB5075
[9] = in presence of compound at 30 μM, AB5075

Nc1nc(-c2ccc(NC(=O)c3cc(Cl)cc(Cl)c3)cc2)c[nH]1 [Compound 1]
Disrupted bacterial membrane (%) (AB 5075; compound at 10 μM): 39% and 38.8%
Disrupted bacterial membrane (%) (AB 5075; compound at 20 μM): 78%
MIC ([1]; read-out: Daptomycm MIC (μg/mL)): 16 µg/mL
Fold Increase (colistin MIC) [1, 2]: 8 fold
potentiation of vancomycin ([1]; AB5075): no potentiation activity observed
reduction in vancomycin MIC (fold) ([1]; AB5075): 32 fold
Fold Reduction (daptomycin MIC) [1, 3]: 128 fold
Fold Reduction (vancomycin MIC) [1, 3]: 256 fold
Fold Increase (colistin MIC) ([1]; compound at 30 μM vs colistin alone, AB5075): 32 fold
Josamycin MIC ([1]; AB5075): 8 µg/mL
Oleandomycin MIC ([1]; AB5075): 64 µg/mL
Spiramycin MIC ([1]; AB5075): 128 µg/mL
Troleandomycin MIC ([1]; AB5075): 32 µg/mL
Amikacin MIC ([1]; AB5075): 128 µg/mL
Gentamicin MIC ([1]; AB5075): >512 µg/mL
Kanamycin MIC ([1]; AB5075): >512 µg/mL
Neomycin MIC ([1]; AB5075): 16 µg/mL
Streptomycin MIC ([1]; AB5075): 256 µg/mL
Tobramycin MIC ([1]; AB5075): 64 µg/mL
Azithromycin MIC [1, 4]: 32 µg/mL
Vancomycin MIC [1, 4]: 256 µg/mL
Azithromycin MIC [1, 5]: 32 µg/mL
Vancomycin MIC [1, 5]: 256 µg/mL
Azithromycin MIC [1, 6]: 16 µg/mL
Vancomycin MIC [1, 6]: 256 µg/mL
Azithromycin MIC [1, 7]: 16 µg/mL
Vancomycin MIC [1, 7]: 64 µg/mL
Azithromycin MIC [1, 8]: 16 µg/mL
Vancomycin MIC [1, 8]: 8 µg/mL
Azithromycin MIC [1, 9]: 8 µg/mL
Colistin MIC [1, 9]: 16 µg/mL
Linezolid MIC [1, 9]: 128 µg/mL
Vancomycin MIC [1, 9]: 1 µg/mL
Fold reduction of josamycin MIC ([1]; AB5075): 16 fold
Clarithromycin MIC (A. baumannii strain 4456): 0.5 µg/mL
Vancomycin MIC (A. baumannii strain 4456): 16 µg/mL
Clarithromycin MIC (A. baumannii strain 4490): 0.5 µg/mL
Vancomycin MIC (A. baumannii strain 4490): 1 µg/mL
Clarithromycin MIC (A. baumannii strain 5711): 0.5 µg/mL
Vancomycin MIC (A. baumannii strain 5711): 8 µg/mL
Clarithromycin MIC (A. baumannii strain 8967): 0.25 µg/mL
Vancomycin MIC (A. baumannii strain 8967): 4 µg/mL
Clarithromycin MIC (A. baumannii strain 4957): 0.5 µg/mL
Vancomycin MIC (A. baumannii strain 4957): 8 µg/mL
Clarithromycin MIC (A. baumannii strain 4269): ≤0.25 µg/mL
Vancomycin MIC (A. baumannii strain 4269): 2 µg/mL

Nc1nc(-c2ccc(NC(=O)c3cc(Br)cc(Br)c3)cc2)c[nH]1 [Compound 4]
Disrupted bacterial membrane (%) (AB 5075; compound at 10 μM): 44%
Disrupted bacterial membrane (%) (AB 5075; compound at 20 μM): 83% and 83.2%
Disrupted bacterial membrane (%) (AB 5075; compound at 30 μM): 87.4%
MIC ([1]; in presence of compound at 30 μM, AB5075, read-out: Daptomycm MIC): 64 µg/mL
Fold Increase (colistin MIC) [1, 2]: 0 fold
potentiation of vancomycin ([1]; AB5075): no potentiation activity observed
reduction in vancomycin MIC (fold) ([1]; AB5075): 64 fold
Fold Reduction (daptomycin MIC) [1, 3]: 32 fold
Fold Reduction (vancomycin MIC) [1, 3]: 256 fold
Fold reduction (clarithromycin MIC) [1, 3]: 128 fold
Josamycin MIC ([1]; AB5075): 4 µg/mL
Oleandomycin MIC ([1]; AB5075): 128 µg/mL
Spiramycin MIC ([1]; AB5075): 64 µg/mL
Troleandomycin MIC ([1]; AB5075): 16 µg/mL
Amikacin MIC ([1]; AB5075): 128 µg/mL
Gentamicin MIC ([1]; AB5075): >512 µg/mL
Kanamycin MIC ([1]; AB5075): >512 µg/mL
Neomycin MIC ([1]; AB5075): 64 µg/mL
Streptomycin MIC ([1]; AB5075): 512 µg/mL
Tobramycin MIC ([1]; AB5075): 64 µg/mL
Azithromycin MIC [1, 4]: 64 µg/mL
Vancomycin MIC [1, 4]: 128 µg/mL
Azithromycin MIC [1, 5]: 64 µg/mL
Vancomycin MIC [1, 5]: 256 µg/mL
Azithromycin MIC [1, 6]: 32 µg/mL
Colistin MIC [1, 6]: 0.5 µg/mL
Vancomycin MIC [1, 6]: 128 µg/mL
Azithromycin MIC [1, 7]: 8 µg/mL
Vancomycin MIC [1, 7]: 32 µg/mL
Azithromycin MIC [1, 8]: 16 µg/mL
Vancomycin MIC [1, 8]: 4 µg/mL
Azithromycin MIC [1, 9]: 8 µg/mL
Colistin MIC [1, 9]: 4 µg/mL
Linezolid MIC [1, 9]: 256 µg/mL
Vancomycin MIC [1, 9]: 1 µg/mL
Fold reduction of josamycin MIC ([1]; AB5075): 32 fold
Clarithromycin MIC (A. baumannii strain 4456): ≤0.25 µg/mL
Vancomycin MIC (A. baumannii strain 4456): 64 µg/mL
Clarithromycin MIC (A. baumannii strain 4490): ≤0.25 µg/mL
Vancomycin MIC (A. baumannii strain 4490): 8 µg/mL
Clarithromycin MIC (A. baumannii strain 5711): 0.5 µg/mL
Vancomycin MIC (A. baumannii strain 5711): 64 µg/mL
Clarithromycin MIC (A. baumannii strain 8967): 0.25 µg/mL
Vancomycin MIC (A. baumannii strain 8967): 8 µg/mL
Clarithromycin MIC (A. baumannii strain 4957): 0.5 µg/mL
Vancomycin MIC (A. baumannii strain 4957): 8 µg/mL
Clarithromycin MIC (A. baumannii strain 4269): ≤0.25 µg/mL
Vancomycin MIC (A. baumannii strain 4269): 64 µg/mL

— US20210283107A1, “Methods to Expand the Spectrum of Gram-Positive Antibiotics” (NORTH CAROLINA STATE UNIVERSITY, priority 2016, published 2021)
